# Results as given in US7927612B2, “Combinations and methods for treating neoplasms” (priority 2000, dated 2011).
# Where “and” joins values, the source holds several entries; their conditions need not be identical. Equal entries are not always repeated.
# Assays:
# [1] = Body weight of tumor-bearing mice in the treatment efficacy study (Example 9, Tables 14-16); type: in vivo, Kuiking mice; design: unit: g; settings: control group
# Procedure: Kuiking mice were used in this study. The average weight of the mice used in this study is about 23 grams. About 10^3 liver cancer cells were implanted into the left army pit of mice. At about 10 days, the small tumor grew under the mice skin. At about 15 days, the tumor grew to about 1 cm size. The mice were divided into three groups: control group, therapy group and immunotherapy group. In the control group, 0.1 ml of Ara-C in normal saline was injected to the tumor via intro-tumor injection.
# In the immunotherapy group, 0.1 ml of the combination of ethanol, H2O2, anticancer drug AraC, hemotoxilin and TNP in normal saline was injected to the tumor via intro-tumor injection.
# liver cancer cells = experiment: Treatment efficacy study in mice with implanted liver cancer cells: tumor volume (Example 9, Tables 14-16); type: in vivo, Kuiking mice; design: Everage TV1 (average tumor volume): unit not given here; settings: control group
# Procedure: Kuiking mice were used in this study. The average weight of the mice used in this study is about 23 grams. About 10^3 liver cancer cells were implanted into the left army pit of mice. […] The mice were divided into three groups: control group, therapy group and immunotherapy group. In the control group, 0.1 ml of Ara-C in normal saline was injected to the tumor via intro-tumor injection. […]
# [2] = Date (start), individual mice No. 1-10
substance,measurement,setting,value
Cytidine Arabinosyladenine [Ara-C],Weight,"[1]; 1 d, individual mice",25 (3×) and 20 and 21 and 17 and 25.5 and 18 and 23.5 and 27
same,Weight,"[1]; 2 d, individual mice",24 (2×) and 19 (2×) and 16.5 and 17 and 23.8 and 17.5 and 21 and 25
same,Weight,"[1]; 3 d, individual mice",22 (4×) and 17.5 and 17 and 15 and 16.5 and 20 and 23.5
same,Weight,"[1]; 4 d, individual mice",26.5 and 24 (2×) and 28.2 and 22.8 and 15.8 and 16.5 and 26 and 20 and 28.5
same,Weight,"[1]; 5 d, individual mice",24.5 and 30 and 28.5 and 24 (2×) and 28 and 19 and 26.5 and 21.5
same,Weight,"[1]; 6 d, individual mice",23.5 and 31 and 29.5 and 24.5 and 28 (2×) and 24 and 19 and 22
same,Weight,"[1]; 7 d, individual mice",24 (2×) and 32.5 and 29 and 24.5 and 28.5 and 19.5 and 28 and 21
same,Weight,"[1]; 8 d, individual mice",24.5 (3×) and 33 and 24 and 28.5 (2×) and 20 and 21
same,Weight,"[1]; 9 d, individual mice",24.5 (2×) and 33.5 and 23.5 and 28.5 (2×) and 21 and 29 and 23
same,Weight,[1]; [2],23.5 and 24 and 22.5 and 18 and 18.5 and 14 and 23 and 14.5 and 20 and 26
same,Everage TV1 (average tumor volume),liver cancer cells; 1 d,0.8
same,TV (tumor volume),"liver cancer cells; 1 d, individual mice",1.3*0.7*0.5 = 0.455 Scm and 1.1*0.8*0.6 = 0.528 Scm and 1.4*1.1*1 = 1.54 Scm and 1*0.9*0.6 = 0.54 Scm and 1.1*1*0.7 = 0.77 Scm and 1.3*0.9*0.8 = 0.94 Scm and 1*0.7*0.7 = 0.49 Scm and 1.1*0.7*0.6 = 0.462 Scm
same,Everage TV1 (average tumor volume),liver cancer cells; 2 d,1.33
same,TV (tumor volume),"liver cancer cells; 2 d, individual mice",1.2*1.1*0.8 = 1.1 Scm and 1.2*0.9*0.5 = 0.54 Scm and 1.4*1.2*0.8 = 1.34 Scm and 1*0.8*0.6 = 0.48 Scm and 1.3*0.6*0.5 = 0.39 Scm and 1.3*1*0.8 = 1.04 Scm and 1.3*0.8*0.7 = 0.73 Scm and 1.2*1.1*0.8 = 1.06 Scm and 1.2*1*0.8 = 0.96 Scm and 1.3*0.9*0.6 = 0.702 Scm
same,Everage TV1 (average tumor volume),liver cancer cells; 3 d,1.47
same,TV (tumor volume),"liver cancer cells; 3 d, individual mice",1.1*1.2*0.7 = 0.924 Scm and 1.5*1.2*1 = 1.8 Scm (2×) and 1.2*0.9*0.6 = 0.648 Scm and 1.2*1.1*0.8 = 1.1 Scm and 1.2*1*0.6 = 0.72 Scm and 1.4*1.1*0.7 = 1.08 Scm and 1.4*1.2*0.8 = 1.34 Scm and 1*1*0.6 = 0.6 Scm
same,Everage TV1 (average tumor volume),liver cancer cells; 4 d,1.47
same,TV (tumor volume),"liver cancer cells; 4 d, individual mice",1.3*1.4*1.1 = 2 Scm and 1.5*1*0.6 = 0.99 Scm and 1.6*1.4*1 = 2.24 Scm and 1.2*0.8*0.5 = 1 Scm and 1.6*1.3*1.4 = 2.9 Scm and 1.4*0.8*0.6 = 0.67 Scm and 1.5*1.2*1.1 = 1.98 Scm and 1.2*1.1*0.8 = 1.06 Scm and 1.3*1.1*0.8 = 1.14 Scm and 1*1*0.7 = 0.7 Scm
same,Everage TV1 (average tumor volume),liver cancer cells; 5 d,1.65
same,TV (tumor volume),"liver cancer cells; 5 d, individual mice",1.4*1*1 = 1.4 Scm and 1.5*1.3*1 = 1.95 Scm and 1.5*1.1*0.7 = 1.16 Scm and 1.7*1.3*0.9 = 1.98 Scm and 1.2*1.2*0.7 = 1 Scm and 1.5*1.3*0.9 = 1.75 Scm and 1.7*1.4*1 = 2.38 Scm and 1.4*1.4*1 = 1.96 Scm and 1.6*1*0.8 = 1.28 Scm
same,Everage TV1 (average tumor volume),liver cancer cells; 6 d,1.87
same,TV (tumor volume),"liver cancer cells; 6 d, individual mice",1.3*1.1*0.8 = 1.14 Scm and 1.6*1.3*1.1 = 2.28 Scm and 1.2*1*0.5 = 0.6 Scm and 1.8*1.2*1 = 2.16 Scm and 1.3*1.5*0.6 = 1.17 Scm and 1.6*1.4*1 = 2.24 Scm and 1.9*1.6*1.2 = 3.6 Scm and 1.5*1.4*1.1 = 2.31 Scm and 1.4*1.2*0.8 = 1.34 Scm
same,Everage TV1 (average tumor volume),liver cancer cells; 7 d,2.59
same,TV (tumor volume),"liver cancer cells; 7 d, individual mice",1.5*0.8*0.7 = 0.84 Scm and 1.8*1.6*1.5 = 4.32 Scm and 1.4*0.9*0.6 = 0.76 Scm and 1.9*1.4*1.2 = 3.19 Scm and 1.5*1.3*0.9 = 1.76 Scm and 1.9*1.5*1 = 2.85 Scm and 1.8*1.5*1.5 = 4 Scm and 1.5*1.4*1.3 = 2.73 Scm and 1.5*1.6*1.2 = 2.88 Scm
same,Everage TV1 (average tumor volume),liver cancer cells; 8 d,2.73
same,TV (tumor volume),"liver cancer cells; 8 d, individual mice",1.3*0.9*0.7 = 0.819 Scm and 1.4*1.5*1.3 = 2.73 Scm and 1.8*1.2*1.2 = 2.59 Scm and 1.2*0.7*0.6 = 0.5 Scm and 1.5*1.5*1.2 = 2.7 Scm and 1.5*1.6*1.4 = 3.36 Scm and 1.5*1.3*1.2 = 2.34 Scm and 1.5*1.4*1.2 = 2.52 Scm and 1.5*1.2*1.1 = 1.98 Scm
same,Everage TV1 (average tumor volume),liver cancer cells; 9 d,3.12
same,TV (tumor volume),"liver cancer cells; 9 d, individual mice",1.5*1.2*0.9 = 1.62 Scm and 1.8*1.8*1.8 = 5.8 Scm and 1.9*1.5*1.4 = 3.99 Scm and 1.6*1.1*0.7 = 1.2 Scm and 2.1*1.5*1.4 = 4.4 Scm and 1.3*1.4*1.1 = 2 Scm and 1.7*1.4*1.1 = 2.62 Scm and 1.4*1.6*1.4 = 3.14 Scm and 1.8*1.4*1.3 = 3.28 Scm
same,Everage TV1 (average tumor volume),liver cancer cells; Date (start),0.343
same,TV (tumor volume),liver cancer cells; [2],0.8*0.6*0.4 = 0.192 Scm and 1*0.5*0.3 = 0.15 Scm and 1.3*0.9*0.6 = 0.7 Scm and 1*0.7*0.5 = 0.35 Scm and 0.9*0.7*0.5 = 0.32 Scm and 0.8*0.6*0.5 = 0.24 Scm and 1*0.9*0.6 = 0.54 Scm and 1*0.8*0.5 = 0.4 Scm and 0.7*0.7*0.6 = 0.294 Scm and 0.7*0.7*0.5 = 0.245 Scm
